Tests used:
[1] = compound: COC1=C(C=C(C=C1)C2=CC3=NC=CN3C(=N2)NC4=C(C=CC=N4)C(=O)N)OC [BAY61-3606]; assay: relative viability (nuclei count vs DMSO), 5 days (fraction); higher = more cells survive
Summary of the method: (§1)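 Nuclei counted with MetaXpress define viability as the ratio of treated to vehicle wells, given as a median across plates. The lung cancer cell lines were in 1536-well plates, pinned with five √10-spaced library-drug doses and imaged at 4× after 5 days and Hoechst staining. Plates passed with control CV below 25% and at least one doubling.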

[2] = compound: COc1cccc2c1C(=O)c1c(O)c3c(c(O)c1C2=O)C[C@@](O)(C(=O)CO)C[C@@H]3O[C@H]1C[C@H](N)[C@H](O)[C@H](C)O1 [Doxorubicin]; assay: as above
Summary of the method: as §1

Cell Line | relative viability ([1]; 0.02 µM) | relative viability ([1]; 0.06325 µM) | relative viability ([1]; 0.2 µM) | relative viability ([1]; 0.6325 µM) | relative viability ([1]; 2 µM) | relative viability ([2]; 0.001 µM) | relative viability ([2]; 0.003162 µM) | relative viability ([2]; 0.01 µM) | relative viability ([2]; 0.03162 µM) | relative viability ([2]; 0.1 µM)
NCI-H441 | 1.12 | 1.15 | 1.01 | 1.15 | 0.682 | 0.687 | 0.957 | 0.677 | 0.359 | 0.326
NCI-H460 | 1.04 | 1.03 | 0.959 | 0.998 | 0.891 | 0.957 | 0.96 | 0.859 | 0.468 | 0.141
NCI-H520 | 1.07 | 1.06 | 1.07 | 1.12 | 1.05 | 0.901 | 1.03 | 0.939 | 0.799 | 0.822
NCI-H522 | 0.961 | 0.907 | 0.953 | 0.954 | 0.933 | 0.741 | 0.938 | 0.988 | 0.838 | 0.894
NCI-H596 | 0.96 | 0.96 | 1.07 | 1.15 | 0.86 | 0.97 | 1.16 | 1.08 | 0.853 | 0.948
NCI-H647 | 1.15 | 0.897 | 0.946 | 0.979 | 0.616 | 0.953 | 1.07 | 0.987 | 0.495 | 0.201
NCI-H650 | 1 | 0.802 | 0.818 | 0.942 | 0.745 | 1 | 0.86 | 0.92 | 0.83 | 0.741
NCI-H661 | 1.02 | 0.993 | 0.991 | 0.963 | 0.976 | 1.01 | 1.06 | 0.957 | 0.853 | 0.634
NCI-H727 | 1 | 0.923 | 0.983 | 1.01 | 0.901 | 0.874 | 0.971 | 0.76 | 0.928 | 0.812
NCI-H838 | 1.03 | 0.942 | 0.999 | 0.934 | 0.668 | 1 | 0.988 | 0.964 | 0.807 | 0.552
NCI-H1299 | 1.02 | 1.01 | 1.02 | 1.04 | 0.989 | 1.02 | 1.05 | 0.984 | 1.02 | 0.943
NCI-H1355 | 1.08 | 0.916 | 0.937 | 0.961 | 0.882 | 0.888 | 1.04 | 1.01 | 0.989 | 1.01
NCI-H1395 | 1.02 | 0.811 | 0.826 | 0.895 | 0.811 | 0.919 | 1.05 | 1.02 | 0.891 | 0.629
NCI-H1437 | 1.03 | 1.03 | 0.978 | 1 | 0.941 | 0.991 | 1.01 | 0.894 | 0.718 | 0.409
NCI-H1563 | 1.16 | 0.993 | 1.01 | 0.994 | 0.814 | 0.939 | 0.939 | 0.747 | 0.698 | 0.683
NCI-H1623 | 0.892 | 0.891 | 0.911 | 0.953 | 0.927 | 0.934 | 0.968 | 0.965 | 0.947 | 0.992
NCI-H1648 | 0.832 | 0.89 | 1.16 | 0.74 | 0.804 | 0.898 | 1.07 | 0.719 | 0.864 | 0.882

Cell Line | relative viability ([1]; 0.02 µM) | relative viability ([1]; 0.06325 µM) | relative viability ([1]; 0.2 µM) | relative viability ([1]; 0.6325 µM) | relative viability ([1]; 2 µM) | relative viability ([2]; 0.001 µM) | relative viability ([2]; 0.003162 µM) | relative viability ([2]; 0.01 µM) | relative viability ([2]; 0.03162 µM) | relative viability ([2]; 0.1 µM)
NCI-H1650 | 1.06 | 0.883 | 0.964 | 1.11 | 0.527 | 0.823 | 0.809 | 0.481 | 0.255 | 0.159
NCI-H1651 | 1.01 | 0.93 | 0.986 | 1.01 | 0.883 | 0.949 | 0.96 | 0.925 | 0.642 | 0.635
NCI-H1666 | 1.14 | 0.996 | 0.958 | 1.04 | 1.01 | 0.902 | 0.996 | 0.814 | 0.548 | 0.525
NCI-H1703 | 1.16 | 0.789 | 0.77 | 0.919 | 0.558 | 0.857 | 0.936 | 0.812 | 0.4 | 0.351
NCI-H1734 | 1.04 | 0.979 | 0.746 | 0.935 | 0.602 | 0.923 | 1.11 | 0.876 | 0.669 | 0.608
NCI-H1755 | 1.05 | 1 | 0.995 | 1.05 | 0.988 | 0.999 | 0.979 | 1 | 1.03 | 1.02
NCI-H1792 | 0.982 | 0.853 | 1 | 0.885 | 1.03 | – | 0.885 | 0.964 | 0.903 | 0.747
NCI-H1793 | 0.964 | 1.02 | 0.786 | 1.08 | 1.03 | – | 1.18 | 0.863 | 0.731 | 0.901
NCI-H1915 | 0.993 | 0.996 | 0.826 | 1.01 | 0.786 | 0.955 | 1.03 | 0.966 | 1.03 | 1.01
NCI-H1944 | 1.08 | 1 | 0.95 | 0.785 | 0.619 | 0.929 | 1.02 | 0.902 | 0.692 | 0.802
NCI-H1975 | 0.958 | 0.964 | 0.913 | 0.874 | 0.668 | 1.02 | 0.985 | 0.951 | 0.778 | 0.518
NCI-H1993 | 0.958 | 0.896 | 0.818 | 0.97 | 0.806 | 0.967 | 0.927 | 1.01 | 0.819 | 0.749
NCI-H2009 | 1.06 | 1.03 | 0.997 | 0.989 | 0.894 | 0.99 | 1.01 | 0.94 | 0.843 | 0.504
NCI-H2023 | 1.14 | 1.05 | 1 | 1.16 | 0.697 | 0.873 | 0.903 | 0.706 | 0.209 | 0.0985
NCI-H2085 | 1.08 | 1.03 | 0.995 | 1.08 | 0.934 | 0.971 | 0.996 | 0.994 | 0.926 | 0.95
NCI-H2087 | 0.996 | 1.15 | 1.18 | 1.11 | 0.961 | 0.819 | 1.15 | 1.01 | 0.78 | 0.636
NCI-H2126 | 1.07 | 0.931 | 0.944 | 1.05 | 0.915 | 0.946 | 1 | 0.97 | 0.914 | 1.01

From the supplement of paper PMC10307832
